In PubChem BioAssay AID256 (DTP/NCI, 2004) one finds T/C data, which are given here for twelve compounds.

This experiment deals with CD2F1 mice, L1210 leukemia ip, survival T/C. Description: NCI In Vivo Anticancer Drug Screen. Data for tumor model L1210 Leukemia (intraperitoneal) in CD2F1 (CDF1) mice. As to conditions: higher = longer survival. In short, it runs like this:
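Compound-dosed mice with transplantable tumor versus matched vehicle controls; endpoint ratio T/C reported.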

Where [1] appears, read: endpoint: mean survival time, dose: 100.0 mg/kg/injection, schedule: Q01DX009 (ip), vehicle: saline sonified.
The mark [2] stands for this setting: endpoint: mean survival time, dose: 100.0 mg/kg/injection, schedule: Q04DX003 (ip), vehicle: saline with Tween-80.
The mark [3] stands for this setting: endpoint: mean survival time, dose: 200.0 mg/kg/injection, schedule: Q01DX009 (ip), vehicle: saline sonified.
Where [4] appears, read: endpoint: mean survival time, dose: 200.0 mg/kg/injection, schedule: Q04DX003 (ip), vehicle: saline with Tween-80.
[5] abbreviates: endpoint: mean survival time, dose: 400.0 mg/kg/injection, schedule: Q04DX003 (ip), vehicle: saline with Tween-80.
The mark [6] stands for this setting: endpoint: mean survival time, dose: 25.0 mg/kg/injection, schedule: Q01DX009 (ip), vehicle: saline with Tween-80.
Setting [7] is: endpoint: mean survival time, dose: 100.0 mg/kg/injection, schedule: Q04DX003 (ip), vehicle: Klucel (hydroxypropylcellulose) (HPC).
Where [8] appears, read: endpoint: mean survival time, dose: 200.0 mg/kg/injection, schedule: Q04DX003 (ip), vehicle: Klucel (hydroxypropylcellulose) (HPC).
[9] abbreviates: endpoint: mean survival time, dose: 25.0 mg/kg/injection, schedule: Q04DX002 (ip), vehicle: saline with Tween-80.
The mark [10] stands for this setting: endpoint: mean survival time, dose: 50.0 mg/kg/injection, schedule: Q04DX002 (ip), vehicle: saline with Tween-80.
[11] abbreviates: endpoint: mean survival time, dose: 100.0 mg/kg/injection, schedule: Q04DX002 (ip), vehicle: saline with Tween-80.

Several values for one entry are separate records, joined by “and”; a condition that tells them apart may be missing. Identical values can stand only once. Inconclusive results and toxic doses are left out.

For the compound `COC(=O)/C(Br)=C/N(Cc1ccccc1)Cc1ccccc1`, the T/C under setting [1] was 101 % of control; the T/C under setting [2] was 94 % of control; the T/C under setting [3] is 101 % of control; the T/C under setting [4] is 93 % of control; the T/C (endpoint: mean survival time, dose: 400.0 mg/kg/injection, schedule: Q01DX009 (ip), vehicle: saline sonified) is 103 % of control; the T/C under setting [5] is 96 % of control.

`CCCCCCCCCCCCNC(=O)C[n+]1cccc(C(=O)N(C)C)c1`: the T/C reads like this: (endpoint: mean survival time, dose: 5.0 mg/kg/injection, schedule: Q01DX009 (ip), vehicle: saline with Tween-80) 114 % of control; (endpoint: mean survival time, dose: 10.0 mg/kg/injection, schedule: Q01DX009 (ip), vehicle: saline with Tween-80) 97 % of control; (endpoint: mean survival time, dose: 20.0 mg/kg/injection, schedule: Q01DX009 (ip), vehicle: saline with Tween-80) 98 % of control.

On to `Cc1cc(N(CC(C)Br)CC(C)Br)ccc1N=Nc1ccccc1C(=O)O` (configuration not stated), for which the T/C by setting is: (endpoint: mean survival time, dose: 3.13 mg/kg/injection, schedule: Q01DX009 (ip), vehicle: saline with Tween-80) 105 % of control and 112 % of control; (endpoint: mean survival time, dose: 6.25 mg/kg/injection, schedule: Q01DX009 (ip), vehicle: Klucel (hydroxypropylcellulose) (HPC)) 106 % of control; (endpoint: mean survival time, dose: 6.25 mg/kg/injection, schedule: Q01DX009 (ip), vehicle: saline with Tween-80) 114 % of control and 117 % of control and 109 % of control; (endpoint: mean survival time, dose: 25.0 mg/kg/injection, schedule: Q01DX009 (ip), vehicle: Klucel (hydroxypropylcellulose) (HPC)) 119 % of control; under setting [6], 86 % of control.

Regarding `NNC(=O)c1ncn(C2OC(CO)C(O)C2O)c1C(=O)NN` (configuration not stated), the T/C is, setting by setting: (endpoint: mean survival time, dose: 12.5 mg/kg/injection, schedule: Q01DX005 (ip), vehicle: water) 103 % of control; (endpoint: mean survival time, dose: 25.0 mg/kg/injection, schedule: Q01DX005 (ip), vehicle: water) 101 % of control; (endpoint: mean survival time, dose: 50.0 mg/kg/injection, schedule: Q01DX005 (ip), vehicle: water) 95 % of control; (endpoint: mean survival time, dose: 100.0 mg/kg/injection, schedule: Q01DX005 (ip), vehicle: water) 103 % of control; (endpoint: mean survival time, dose: 200.0 mg/kg/injection, schedule: Q01DX005 (ip), vehicle: water) 97 % of control.

Turning to `O=S(=O)(N=C1C(Cl)=C(Cl)C(=NS(=O)(=O)c2ccccc2)C(Cl)=C1Cl)c1ccccc1`, the T/C is, setting by setting: under setting [7], 97 % of control; under setting [8], 95 % of control; (endpoint: mean survival time, dose: 400.0 mg/kg/injection, schedule: Q04DX003 (ip), vehicle: Klucel (hydroxypropylcellulose) (HPC)) 93 % of control.

Consider `CCCC(CCC)NCCO`, for which the T/C is, setting by setting: (endpoint: mean survival time, dose: 75.0 mg/kg/injection, schedule: Q01DX001 (ip), vehicle: saline) 98 % of control; (endpoint: mean survival time, dose: 150.0 mg/kg/injection, schedule: Q01DX001 (ip), vehicle: saline) 96 % of control.

As for `Nc1cc(Cl)c2[nH]cnc2n1`, the T/C is 107 % of control (endpoint: mean survival time, dose: 6.25 mg/kg/injection, schedule: Q01DX009 (ip), vehicle: distilled water + Tween-80); 102 % of control (endpoint: mean survival time, dose: 6.25 mg/kg/injection, schedule: Q01DX009 (ip), vehicle: water); 120 % of control (endpoint: mean survival time, dose: 12.5 mg/kg/injection, schedule: Q01DX009 (ip), vehicle: distilled water + Tween-80); 113 % of control (endpoint: mean survival time, dose: 12.5 mg/kg/injection, schedule: Q01DX009 (ip), vehicle: water); 150 % of control (endpoint: mean survival time, dose: 25.0 mg/kg/injection, schedule: Q01DX009 (ip), vehicle: distilled water + Tween-80); 150 % of control and 164 % of control (endpoint: mean survival time, dose: 50.0 mg/kg/injection, schedule: Q01DX009 (ip), vehicle: distilled water + Tween-80). Besides, the T/C was 118 % of control and 110 % of control (endpoint: mean survival time, dose: 50.0 mg/kg/injection, schedule: Q04DX003 (ip), vehicle: Klucel (hydroxypropylcellulose) (HPC)); 108 % of control (endpoint: mean survival time, dose: 85.0 mg/kg/injection, schedule: Q04DX003 (ip), vehicle: saline with Tween-80); 151 % of control and 185 % of control (endpoint: mean survival time, dose: 100.0 mg/kg/injection, schedule: Q01DX009 (ip), vehicle: distilled water + Tween-80); 115 % of control and 109 % of control under setting [7]; 153 % of control and 228 % of control (endpoint: mean survival time, dose: 200.0 mg/kg/injection, schedule: Q01DX009 (ip), vehicle: distilled water + Tween-80); 108 % of control under setting [8]. The T/C was 120 % of control and 109 % of control (endpoint: mean survival time, dose: 300.0 mg/kg/injection, schedule: Q04DX003 (ip), vehicle: Klucel (hydroxypropylcellulose) (HPC)); 100 % of control (endpoint: mean survival time, dose: 400.0 mg/kg/injection, schedule: Q01DX009 (ip), vehicle: distilled water + Tween-80); 108 % of control (endpoint: median survival time, dose: 6.0 mg/kg/injection, schedule: Q01DX009 (ip), vehicle: Klucel (hydroxypropylcellulose) (HPC)); 119 % of control (endpoint: median survival time, dose: 12.0 mg/kg/injection, schedule: Q01DX009 (ip), vehicle: Klucel (hydroxypropylcellulose) (HPC)); 120 % of control (endpoint: median survival time, dose: 25.0 mg/kg/injection, schedule: Q01DX005 (ip), vehicle: saline with Tween-80); 152 % of control (endpoint: median survival time, dose: 25.0 mg/kg/injection, schedule: Q01DX009 (ip), vehicle: Klucel (hydroxypropylcellulose) (HPC)). For the same compound, the T/C reads like this: (endpoint: median survival time, dose: 25.0 mg/kg/injection, schedule: Q01DX009 (ip), vehicle: saline with Tween-80) 153 % of control; (endpoint: median survival time, dose: 50.0 mg/kg/injection, schedule: Q01DX009 (ip), vehicle: Klucel (hydroxypropylcellulose) (HPC)) 172 % of control; (endpoint: median survival time, dose: 50.0 mg/kg/injection, schedule: Q01DX009 (ip), vehicle: saline with Tween-80) 188 % of control; (endpoint: median survival time, dose: 100.0 mg/kg/injection, schedule: Q01DX005 (ip), vehicle: saline with Tween-80) 161 % of control; (endpoint: median survival time, dose: 100.0 mg/kg/injection, schedule: Q01DX009 (ip), vehicle: Klucel (hydroxypropylcellulose) (HPC)) 178 % of control; (endpoint: median survival time, dose: 100.0 mg/kg/injection, schedule: Q01DX009 (ip), vehicle: saline with Tween-80) 160 % of control. The T/C (endpoint: median survival time, dose: 200.0 mg/kg/injection, schedule: Q01DX005 (ip), vehicle: saline with Tween-80) was 159 % of control.

`COc1cc2c(cc1OC)C(CCN1C(=O)CCC1=O)=NCC2`: the T/C is 96 % of control (endpoint: mean survival time, dose: 50.0 mg/kg/injection, schedule: Q01DX009 (ip), vehicle: saline sonified); 102 % of control under setting [1]; 98 % of control (endpoint: mean survival time, dose: 100.0 mg/kg/injection, schedule: Q04DX003 (ip), vehicle: saline sonified); 100 % of control under setting [3]; 103 % of control (endpoint: mean survival time, dose: 200.0 mg/kg/injection, schedule: Q04DX003 (ip), vehicle: saline sonified).

As for `COc1ccc(NC(=O)Oc2ccc(SC)c(C)c2)cc1`, the T/C under setting [6] was 101 % of control; the T/C under setting [9] was 100 % of control; the T/C (endpoint: mean survival time, dose: 50.0 mg/kg/injection, schedule: Q01DX009 (ip), vehicle: saline with Tween-80) is 95 % of control; the T/C under setting [10] is 107 % of control; the T/C (endpoint: mean survival time, dose: 100.0 mg/kg/injection, schedule: Q01DX009 (ip), vehicle: saline with Tween-80) was 89 % of control; the T/C under setting [11] is 91 % of control and 104 % of control. For the setting “endpoint: mean survival time, dose: 400.0 mg/kg/injection, schedule: Q04DX002 (ip), vehicle: saline with Tween-80”, the T/C was 91 % of control.

For the compound `CC(Br)C(=O)OCc1ccccc1` (configuration not stated), the T/C under setting [2] is 95 % of control, the T/C under setting [4] is 95 % of control and the T/C under setting [5] is 95 % of control.

Regarding `CC(=O)Oc1ccc2ccccc2c1-c1c(OC(C)=O)ccc2ccccc12`, the T/C reads like this: under setting [9], 101 % of control; under setting [10], 101 % of control; under setting [11], 101 % of control.

Turning to `CNC(=O)c1n[nH]c(C)c1N`, the T/C reads like this: (endpoint: mean survival time, dose: 25.0 mg/kg/injection, schedule: Q01DX009 (ip), vehicle: water) 97 % of control; (endpoint: mean survival time, dose: 50.0 mg/kg/injection, schedule: Q01DX009 (ip), vehicle: water) 98 % of control; (endpoint: mean survival time, dose: 100.0 mg/kg/injection, schedule: Q01DX009 (ip), vehicle: water) 101 % of control; (endpoint: mean survival time, dose: 200.0 mg/kg/injection, schedule: Q01DX009 (ip), vehicle: water) 98 % of control; (endpoint: mean survival time, dose: 400.0 mg/kg/injection, schedule: Q01DX009 (ip), vehicle: water) 101 % of control.
